Where a SMILES comes first, the peptide text is derived from it.
Assays:
Aβ42 fibrils = Aβ42 fibrils (Homo sapiens, UniProt P05067); test: Surface plasmon resonance (SPR), immobilized Aβ42 fibrils; format: binding
Description: These experiments were conducted using a Sensi Q semi-automatic SPR machine (ICx Nomadics). This apparatus has two parallel flow cells; one was used to immobilize Aβ42 fibrils while the other was used as “reference” (empty surface). A COOH5 sensor chip (ICx Nomadics) was employed for this purpose and the peptide was immobilized by amine coupling chemistry. Briefly, after surface activation, the peptide preparation was diluted to 10 µM in acetate buffer (pH 4.0) and then injected for 5 min at a flow rate of 30 µl/min. Any remaining activated groups were blocked with ethanolamine (pH 8.0). The final immobilization level was ∼5,000 resonance units (1 RU = 1 pg of protein/mm^2). The empty “reference” surface was prepared in parallel using the same immobilization procedure, but without addition of the peptide. Sensorgrams were then obtained via injection of three different concentrations of RI-OR2–TAT (1, 3 and 6 µM), as well as the vehicle (PBS with 0.005% Tween 20), over the immobilized ligand or control surface, in parallel. These SPR data can be interpreted to provide an estimate for the affinity of binding of the inhibitors to Aβ fibrils, [28]. Data for the three concentrations of RI-OR2-TAT were fitted separately by Qdat software [ICx Nomadics] using the 1∶1 pseudo-first order Langmuir interaction model. Eq. 1 was used to fit the association while the dissociation was fitted by eq. 2. The rate constants (kon and koff) were used to calculate kd as reported in eq. 3. [drawing 1] (1) [drawing 2] (2) [drawing 3] (3) Where Rt is binding response at time t; C is the molar concentration of the analyte at the interaction surface at time t; Rmax is the maximal binding response; R0 is the binding response at time t0 (i. e. time at the onset of the dissociation phase); kon is the association rate constant; koff is the dissociation rate constant. Values were expressed as a mean ± SD.

[1] = tested on: β-amyloid plaques in APP/PS1 mouse cortex; test: Amyloid plaque load, β-amyloid immunostaining, cortex; format: in vivo; conditions: 100 nmol/kg i.p. once daily, 21 days, 10 months old APP/PS1 mice, vs saline, p<0.0001, N = 4 per group
Description: (§1) APPswe/PS1ΔE9 mice with a C57Bl/6 background (APP/PS1 mice) were obtained from the Jackson lab (http://research.jax.org/repository/alzheimers.html). […] To look at the effects of RI-OR2-TAT on mouse brain pathology (experiment 2), 8 female 10-months-old APP/PS1 mice were used. The animals were housed in single cages in a temperature controlled holding room (21.5°C±1) with 12∶12 h light and dark cycle. Food and water was available ad libitum.
(§2) For experiment 2, 4 animals were injected intraperitonially (i.p.) with 0.9% NaCl (vehicle control) and the other 4 with RI-OR2-TAT (100 nmol/kg in 0.9% NaCl) once daily, for 21 days. […]
(§3) For experiment 2 (effects on brain pathology), sections were examined for activated microglia (using anti-Iba-1 antibody), oxidative stress (anti-8-oxo-guanine antibody), immature neurons (anti-doublecourtin antibody) or total plaque load (anti-Aβ antibody). […] Oxidative stress was assessed by denaturing DNA in each section using 2N HCl and the sections were then stained for 8-oxo guanine (1∶200 dilution, MAB3560, Millipore). Young immature neurons were detected by immunostaining for doublecortin (1∶200 dilution, sc-66911, Santa Cruz Biotechnology). Total plaque load was quantified by immunostaining for β-amyloid (1∶200 dilution, Invitrogen, 71–5800).
(§4) All sections were visualized using an Axio Scope 1 fluorescence microscope (Zeiss, Germany). […]

Aβ42 [2] = test: Immunoassay for Aβ oligomers (in vitro), 6E10/biotinylated 6E10 sandwich; format: biochemical; conditions: 2∶1 and 1∶1 molar ratios of inhibitor:Aβ42; 12.5 µM Aβ42, PBS pH 7.4, 25°C, even at earliest time points 4 and 8 h
Description: This is a more sensitive test than the ThT assay for the detection of early oligomeric forms of Aβ [16]. Microtitre plates (96-well, Maxisorb) were coated with 6E10, diluted 1∶1000 in 10 mM PBS, pH 7.4, for overnight at 4°C. The plates were blocked with assay buffer (Tris-buffered saline (TBS) (pH 7.4), containing 0.05% γ-globulins and 0.005% Tween 20) plus 5% gelatine for 1 h at 37°C. Samples of peptide (12.5 µM Aβ42 and 0, 3.125, 6.25, 12.5, 25 or 62.5 µM RI-OR2–TAT in 10 mM PBS, pH 7.4) were incubated at 25°C for 0, 4, 8, 24 or 48 h, diluted to 1 µM Aβ, and plated in triplicate. The plates were incubated for 1 h at 37°C and then washed with PBS plus 0.05% Tween-20 (PBST). A 1∶1,000 dilution of biotinylated 6E10 was then added to each well, left for 1 h at 37°C, and the plates were washed with PBST. Europium-linked streptavidin was then added to the wells at 1∶500 dilution in StrepE buffer (TBS containing 20 µM DTPA, 0.5% bovine serum albumin, and 0.05% γ-globulins), incubated for 1 h, and washed as before. Enhancer solution was added and the plates were read on a Wallac Victor 2 plate reader, using the time-resolved fluorescence setting for europium.

[3] = tested on: activated microglia (Iba1) in APP/PS1 mouse cortex; test: Activated microglia, Iba1 immunostaining, cortex; format: in vivo; conditions: 100 nmol/kg i.p. once daily, 21 days, 10 months old APP/PS1 mice, vs saline, p<0.0001, 4 animals per group
Description: as §1, §2, §3, §4

Aβ42 [4] = test: Thioflavin T (ThT) assay for Aβ fibrils; format: biochemical
Description: This method was the same as that published previously. Briefly, 60 µl samples of solutions containing Aβ42 (25 µM), ThT (15 µM) and between 0 and 125 µM RI-OR2 or RI-OR2–TAT, in 10 mM phosphate buffered saline (PBS), pH 7.4, were incubated in sealed, black, clear-bottomed 384-well plates (Corning). ThT fluorescence was monitored every 10 mins (λex = 442 nm, λem = 483 nm) for 48 h at 30°C in a Biotek Synergy 2 plate reader.

Chain of Aβ42 fibrils (P05067 672-713 limits assumed): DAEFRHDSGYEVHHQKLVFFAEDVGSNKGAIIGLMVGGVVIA

CC(=O)N[C@H](CCCNC(=N)N)C(=O)NCC(=O)N[C@H](Cc1ccccc1)C(=O)N[C@H](Cc1ccccc1)C(=O)N[C@@H](C(=O)N[C@H](CC(C)C)C(=O)N[C@H](CCCCN)C(=O)NCC(=O)N[C@H](CCCNC(=N)N)C(=O)N[C@H](CCCNC(=N)N)C(=O)N[C@H](CCCNC(=N)N)C(=O)N[C@H](CCCNC(=N)N)C(=O)N[C@H](CCC(N)=O)C(=O)N[C@H](CCCNC(=N)N)C(=O)N[C@H](CCCNC(=N)N)C(=O)N[C@H](CCCCN)C(=O)N[C@H](CCCCN)C(=O)N[C@H](CCCNC(=N)N)C(=O)NCC(=O)N[C@H](Cc1ccc(O)cc1)C(N)=O)C(C)C [RI-OR2-TAT, Ac-rGffvlkGrrrrqrrkkrGy-NH2] (HELM PEPTIDE1{[ac].[dR].G.[dF].[dF].[dV].[dL].[dK].G.[dR].[dR].[dR].[dR].[dQ].[dR].[dR].[dK].[dK].[dR].G.[dY].[am]}$$$$V2.0) was tested, and the “fold lower kd than previously reported for RI-OR2” value (Aβ42 fibrils; Aβ42 fibrils, SPR, RI-OR2 value from ref 16) was ~100 -fold, the koff (Aβ42 fibrils; SPR, 1, 3 and 6 µM, 1∶1 Langmuir model, PBS with 0.005% Tween 20, mean ± SD, read-out: koff (dissociation rate constant)) was 0.00037 ± 0.00015 s⁻¹ and the kon (Aβ42 fibrils; SPR, 1, 3 and 6 µM, 1∶1 Langmuir model, PBS with 0.005% Tween 20, mean ± SD, read-out: kon (association rate constant)) was 3680 ± 615 M⁻¹ s⁻¹. For the same compound, the Kd (Aβ42 fibrils; SPR, Aβ42 fibrils, from koff and kon, 1∶1 Langmuir model, three concentrations fitted separately, read-out: kd (calculated apparent affinity)) was 58 to 125 nM, the “reduction of amyloid plaque load” value [1] was 32% and the “development of immunoassay signal (oligomer formation)” value (Aβ42 [2]) was “considerably reduced the development of an immunoassay signal”. For the same compound, the “reduction of number of activated microglia” value [3] was 44%, the “ThT inhibition compared with RI-OR2” value (Aβ42 [4]; 48 h, 25 µM Aβ42, PBS pH 7.4, same molar ratios) was “slightly better inhibitor than RI-OR2” and the “ThT fluorescence after incubation of Aβ42 with inhibitor” value (Aβ42 [4]; 48 h, 30°C, 25 µM Aβ42, 15 µM ThT, 10 mM PBS pH 7.4, molar ratios 1∶1, 1∶2, 1∶4 and 1∶10 (inhibitor:Aβ42)) was “lower fluorescence”. For the same compound, the “inhibition of Aβ42 aggregation (Fig. 1)” value (Aβ42 [4]; ThT, 25 µM Aβ42, 48 h, figure title) was “inhibit the aggregation of Aβ42”.

— article PMC3561363, “A Novel Retro-Inverso Peptide Inhibitor Reduces Amyloid Deposition, Oxidation and Inflammation and Stimulates Neurogenesis in the APPswe/PS1ΔE9 Mouse Model of Alzheimer’s Disease” (PLoS ONE, 2013)
